{"source": "ChEMBL document CHEMBL1156460", "about": "“Lumazine synthase from Candida albicans as an anti-fungal target enzyme: structural and biochemical basis for drug design” (J Biol Chem, 2007)", "tested_on": "Candida albicans", "assay": "Binding affinity to Candida albicans lumazine synthase", "data": [{"smiles": "O=c1[nH]c(=O)c2[nH]c(=O)n(C[C@H](O)[C@H](O)[C@H](O)CO)c2[nH]1", "values": [{"measurement": "Ka", "result": 758000, "unit": "M⁻¹"}]}, {"smiles": "O=c1[nH]c(=O)c2c([nH]1)n(C[C@H](O)[C@H](O)[C@H](O)CO)c(=O)c(=O)n2CCCCOP(=O)(O)O", "values": [{"measurement": "Ka", "result": "1.63e+06", "unit": "M⁻¹"}]}, {"smiles": "O=c1[nH]c(Cl)c(CCCCOP(=O)(O)O)c(=O)[nH]1", "values": [{"measurement": "Ka", "result": "6.61e+06", "unit": "M⁻¹"}]}, {"smiles": "O=c1[nH]c(=O)c2c([nH]1)n(C[C@H](O)[C@H](O)[C@H](O)CO)c(=O)n2CCCOP(=O)(O)O", "values": [{"measurement": "Ka", "result": "3.53e+06", "unit": "M⁻¹"}]}]}
